Measured values reported in patent US10752587B2, “Homobispiperidinyl derivatives as liver X receptor beta agonists, compositions and their use” (Merck Sharp & Dohme Corp., priority 2015, dated 2020).
Where two headings read alike, the source gives them in different places.

Experiments:
[1] = target: T1, glutathione-S-transferase (GST) tagged LXRbeta LBD (ligand binding domain) (Homo sapiens, UniProt P55055); assay: LanthaScreen TR-FRET Liver X Receptor Coactivator Assay, co-activator recruitment to LXRbeta LBD; format: biochemical
T1 construct: purchased Invitrogen pv4658.pps
T1 sequence (P55055 222-460 limits assumed): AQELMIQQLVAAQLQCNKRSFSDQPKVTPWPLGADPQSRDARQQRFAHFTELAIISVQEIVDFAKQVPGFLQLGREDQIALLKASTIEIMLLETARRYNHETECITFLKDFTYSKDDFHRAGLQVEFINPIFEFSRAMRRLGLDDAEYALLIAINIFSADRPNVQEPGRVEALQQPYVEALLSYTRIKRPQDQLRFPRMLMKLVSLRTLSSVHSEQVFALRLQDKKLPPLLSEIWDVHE
Outline: (§1)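 GST-tagged LBD added to test compound, then fluorescein-labelled coactivator peptide plus terbium anti-GST antibody; incubated at room temperature, TR-FRET read. Potency given as inflection point and efficacy as Emax relative to reference dual agonist T0901317.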

[2] = target: T2, glutathione-S-transferase (GST) tagged LXRalpha LBD (ligand binding domain) (Homo sapiens, UniProt Q13133); assay: LanthaScreen TR-FRET Liver X Receptor Coactivator Assay, co-activator recruitment to LXRalpha LBD; format: biochemical
T2 construct: purchased Invitrogen pv4655
T2 sequence (Q13133 209-447 limits assumed): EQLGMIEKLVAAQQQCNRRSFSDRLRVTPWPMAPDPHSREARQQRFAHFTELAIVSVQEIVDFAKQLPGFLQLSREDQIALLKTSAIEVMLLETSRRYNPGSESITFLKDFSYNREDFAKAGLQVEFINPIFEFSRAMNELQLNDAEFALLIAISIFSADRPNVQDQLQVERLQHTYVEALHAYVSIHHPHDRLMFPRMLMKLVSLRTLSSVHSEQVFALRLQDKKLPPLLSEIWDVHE
Outline: as §1

[3] = efficacy at max dose, in relation to reference dual agonist T0901317, read-out: LXR beta Activity @ max dose (%)
[4] = potency (Inflection Point, IP), co-activator recruitment to LXRbeta LBD, in relation to T0901317, read-out: LXR beta IP
[5] = efficacy at max dose, in relation to reference dual agonist T0901317, read-out: LXR alpha Activity @ max dose (%)
[6] = potency (Inflection Point, IP), co-activator recruitment to LXRalpha LBD, in relation to T0901317, read-out: LXR alpha IP
[7] = potency (Inflection Point, IP), co-activator recruitment to LXRalpha LBD, in relation to T0901317
[8] = co-activator recruitment to GST-LXRbeta LBD, TR-FRET, read-out: LXR beta IP (Inflection Point, potency)
[9] = efficacy in relation to reference dual agonist T0901317, read-out: LXR beta Activity @ max dose
[10] = efficacy in relation to reference dual agonist T0901317, read-out: LXR alpha Activity @ max dose
[11] = read-out: LXR beta Activity @ max dose (%)
[12] = co-activator recruitment to GST-LXRalpha LBD, TR-FRET, read-out: LXR alpha IP (Inflection Point, potency)

For CNC(=O)c1ccc(N2CCC(CC3CCN(C(=O)C(O)(C(C)C)C(F)(F)F)CC3)CC2)nc1Cl (stereo not shown) [Example 7-143, 2-chloro-6-[4-({1-[2-hydroxy-3-methyl-2-(trifluoromethyl)butanoyl]piperidin-4-yl}methyl)piperidin-1-yl]-N-methylpyridine-3-carboxamide], the Emax [1, 3] was 104%, the EC50 [1, 4] was 327 nM and the Emax [2, 5] was 58%. The EC50 [2, 6] was 1310 nM.

CCOc1cccc([C@@](O)(C(=O)N2CCC(C)(CC3CCN(c4ccc(C(=O)N(C)C)c(Cl)c4)CC3)CC2)C(F)(F)F)c1 [Example 2-50, 2-chloro-4-[4-({1-[(2R) 2-(3-ethoxy-phenyl)-3,3,3-trifluoro-2-hydroxy-propanoyl]-4-methyl-piperidin-4-yl}methyl)piperidin-1-yl]-N,N-dimethyl-benzamide] showed an Emax [1, 3] of 29%, an EC50 [1, 4] of 8 nM and an Emax [2, 5] of 0%. For the same compound, the “LXR alpha IP (nM)” value [2, 7] was “NO IP”.

For COc1nc(N2CCC(CC3CCN(C(=O)[C@](O)(c4cc(Cl)cc(Cl)c4)C(F)(F)F)CC3)CC2)ccc1C(=O)N(C)C [Example 7-20, 6-[4-({1-[(2R)-2-(3,5-dichlorophenyl)-3,3,3-trifluoro-2-hydroxypropanoyl]piperidin-4-yl}methyl)piperidin-1-yl]-2-methoxy-N,N-dimethylpyridine-3-carboxamide], the Emax [1, 3] was 79%, the EC50 [1, 4] was 6 nM and the Emax [2, 5] was 29%. The “LXR alpha IP (nM)” value [2, 7] was “NO IP”.

With CN(C)C(=O)c1ccc(N2CCC(CC3CCN(S(=O)(=O)c4cccc(Br)c4)CC3)CC2)cc1Cl [Example 13-12, 4-[4-({1-[(3-bromo-phenyl)sulfonyl]-piperidin-4-yl}methyl)-piperidin-1-yl]-2-chloro-N,N-dimethyl-benzamide] the EC50 [1, 8] was 83 nM, the Emax [1, 9] was 54% and the “LXR alpha IP (Inflection Point, potency)” value ([2]; co-activator recruitment to GST-LXRalpha LBD, TR-FRET) was “NO IP”. The Emax [2, 10] was 16%.

With COc1cccc([C@@](O)(C(=O)N2CCC(SC3CCN(c4ccc(C(=O)N(C)C)c(Cl)c4)CC3)CC2)C(F)(F)F)c1 [Example 10-1, (R)-2-chloro-N,N-dimethyl-4-(4-(1-(3,3,3-trifluoro-2-hydroxy-2-(3-methoxyphenyl)propanoyl)piperidin-4-ylthio)piperidin-1-yl)benzamide] the EC50 ([1]; LXR beta IP (nM), potency (Inflection Point, IP), co-activator recruitment to LXRbeta LBD, in relation to T0901317) was 22 nM, the Emax [1, 11] was 56% and the Emax [2, 5] was 8%. The “LXR alpha IP (nM)” value [2, 7] was “NO IP”.

In the case of COc1cccc([C@@](O)(C(=O)N2CCC(OC3CCN(c4ccc(C(=O)N(C)C)c(Cl)c4)CC3)CC2)C(F)(F)F)c1 [Example 2-28, 2-chloro-N,N-dimethyl-4-[4-({1-[(2R)-3,3,3-trifluoro-2-hydroxy-2-(3-methoxyphenyl)propanoyl]piperidin-4-yl}oxy)piperidin-1-yl]benzamide], the Emax [1, 3] is reported as 87%, the EC50 [1, 4] is reported as 25 nM and the Emax [2, 5] is reported as 28%. It also gave an EC50 [2, 6] of 1740 nM.

CNC(=O)c1ccc(N2CCC(CC3CCN(C(=O)[C@@](O)(c4ccccc4)C(F)(F)F)CC3)CC2)nc1Cl [Example 7-140, 2-chloro-N-methyl-6-[4-({1-[(2S)-3,3,3-trifluoro-2-hydroxy-2-phenylpropanoyl]piperidin-4-yl}methyl)piperidin-1-yl]pyridine-3-carboxamide] was tested, and the Emax [1, 3] was 122%, the EC50 [1, 4] was 158 nM and the Emax [2, 5] was 44%. It also gave an EC50 [2, 6] of 1130 nM.

With NC(=O)c1ccc(N2CCC(CC3CCN(C(=O)C(O)(c4cc(F)cc(Cl)c4)C(F)(F)F)CC3)CC2)cc1Cl (stereo not shown) [Example 12-9, 2-chloro-4-[4-({1-[2-(3-chloro-5-fluorophenyl)-3,3,3-trifluoro-2-hydroxy-propanoyl]piperidin-4-yl}methyl)piperidin-1-yl]benzamide] the EC50 [1, 8] was 8 nM, the Emax [1, 9] was 98% and the EC50 [2, 12] was 47 nM. It also gave an Emax [2, 10] of 52%.

CN(C)C(=O)c1ccc(N2CCC(CC3CCN(C(=O)C4(c5ccccc5)CC4)CC3)CC2)cc1Cl [Example 2-9, 2-chloro-N,N-dimethyl-4-[4-({1-[(1-phenyl-cyclopropyl)carbonyl]piperidin-4-yl}methyl)piperidin-1-yl] benzamide] gave an Emax [1, 3] of 48%, an EC50 [1, 4] of 97 nM and an Emax [2, 5] of 0%. The “LXR alpha IP (nM)” value [2, 7] was “NO IP”.

With CCc1cccc([C@@](O)(C(=O)N2CCC(C)(CC3CCN(c4ccc(C(=O)N(C)C)c(C)c4)CC3)CC2)C(F)(F)F)c1 [Example 2-78, 4-[4-({1-[(2R)-2-(3-ethylphenyl)-3,3,3-trifluoro-2-hydroxy-propanoyl]-4-methylpiperidin-4-yl}methyl)piperidin-1-yl]-N,N,2-trimethyl-benzamide] the Emax [1, 3] was 20%, the EC50 [1, 4] was 32 nM and the Emax [2, 5] was 1%. For the same compound, the “LXR alpha IP (nM)” value [2, 7] was “NO IP”.

COc1cccc(S(=O)(=O)N2CC(CC3CCN(c4ccc(C(=O)N(C)C)c(Cl)n4)CC3)C2)c1 [Example 14-2, 2-chloro-6-[4-({1-[(3-methoxyphenyl)-sulfonyl]azetidin-3-yl}methyl)piperidin-1-yl}-N,N-dimethyl-pyridine-3-carboxamide] was tested, and the EC50 [1, 8] was 50 nM, the Emax [1, 9] was 93% and the EC50 [2, 12] was 10300 nM. For the same compound, the Emax [2, 10] was 45%.

Compound Cc1nc(N2CCC(CC3CCN(C(=O)C(O)(c4cccc(Cl)c4)C(F)(F)F)CC3)CC2)ccc1C(=O)N(C)C (stereo not shown) [Example 7-7, 6-[4-({1-[2-(3-chlorophenyl)-3,3,3-trifluoro-2-hydroxypropanoyl]piperidin-4-yl}methyl)piperidin-1-yl]-N,N,2-trimethylpyridine-3-carboxamide] has an EC50 [1, 4] of 36 nM, an Emax [1, 11] of 95% and an EC50 [2, 6] of 508 nM. For the same compound, the Emax ([2]; read-out: LXR alpha Activity @ max dose (%)) was 24%.

CN(C)C(=O)c1ccc(N2CCC(CC3CN(C(=O)[C@](O)(c4cccc(OC(F)(F)F)c4)C(F)(F)F)C3)CC2)cc1Cl [Example 2-63, 2-chloro-N,N-dimethyl-4-{4-[(1-{(2R)-3,3,3-trifluoro-2-hydroxy-2-[3-(trifluoro-methoxy)phenyl]propanoyl}azetidin-3-yl)methyl]piperidin-1-yl}benzamide] gave an Emax [1, 3] of 79%, an EC50 [1, 4] of 21 nM and an Emax [2, 5] of 22%. The EC50 [2, 6] was 1510 nM.
